Data: the RepoRT retention time repository (doi:10.1016/j.jhazmat.2019.121712)

assay: Thermo Scientific Acclaim RSLC 120 C18, 100 × 2.1 mm, 2.2 µm, 30 °C; A: 90% water + 10% methanol + 0.01% formic acid + 5 mM ammonium formate; B: methanol + 0.01% formic acid + 5 mM ammonium formate; gradient (min/%B) 0.1/1 3/39 14/99.9 16/99.9; details: stereoisomer not certain

`CCCCCC(=O)c1ccc(O)cc1O` and `CCCCCc1cc(O)c2c(c1)OC(C)(C)C1CCC(C(=O)O)=CC21` (configuration not stated) are within 1.5-fold of each other in LC retention time: 10.4 min for the first, 12.5 min for the second.

`CC(C)N(CCc1c[nH]c2ccccc12)C(C)C` and `CC(N)Cc1ccccc1` (configuration not stated) are within 1.5-fold of each other in LC retention time: 4.87 min for the first, 4.16 min for the second.

Compared with `CC1(OC(=O)C=Cc2ccccc2)CC(O)C2(O)C=COC(OC3OC(CO)C(O)C(O)C3O)C12` (configuration not stated), `CC[N+]1(C)C2CC(OC(=O)C(CO)c3ccccc3)CC1C1OC12` (configuration not stated) is 2.1-fold lower in LC retention time: 8.25 min for the first, 3.87 min for the second.

`COc1ccc(CC(C)N)cc1` (configuration not stated) and `CC(N)Cc1ccc2[nH]ccc2c1` (configuration not stated) are within 1.5-fold of each other in LC retention time: 4.34 min for the first, 4.07 min for the second.

`CCOP(=O)(OCC)Oc1ccc([N+](=O)[O-])cc1` and `CCOP(=S)(OCC)N1C(=O)c2ccccc2C1=O` are within 1.5-fold of each other in LC retention time: 8.01 min for the first, 10.2 min for the second.

First: CNC(=O)Oc1ccc(N(C)C)c(C)c1
Second: CNC(=O)Oc1cc(C)cc(C(C)C)c1
The LC retention time of the first is 1.8-fold lower: 5.15 min for the first, 9.51 min for the second.

`O=C(Nc1ccc(C(=O)O)c(O)c1)c1ccccc1` and `O=C(O)c1ccccc1C(=O)Nc1cccc2ccccc12` are within 1.5-fold of each other in LC retention time: 5.47 min for the first, 6.75 min for the second.

`c1ccc2c(c1)Sc1ccccc1N2CC1CN2CCC1CC2` (configuration not stated) and `CN1CCC(OC(c2ccccc2)c2ccccc2)CC1` are within 1.5-fold of each other in LC retention time: 8.29 min for the first, 7.23 min for the second.

First: CC(C)C(O)(C(=O)OCC1=CC[N+]2([O-])CCC(O)C12)C(C)O (configuration not stated)
Second: COC(=O)C(NC(=O)c1cn(CC2CCCCC2)c2ccccc12)C(C)(C)C (configuration not stated)
The LC retention time of the first is 3.1-fold lower: 3.94 min for the first, 12.4 min for the second.

`Cc1cc(O)ccc1CC(C)N` (configuration not stated) and `CNC(C)C(=O)c1ccc2c(c1)OCO2` (configuration not stated) are within 1.5-fold of each other in LC retention time: 2.98 min for the first, 3.81 min for the second.

`CC1C(c2ccccc2)OCCN1C` (configuration not stated) and `CC1=C(C(=O)Nc2ccccc2)S(=O)(=O)CCO1` are within 1.5-fold of each other in LC retention time: 4.06 min for the first, 5.59 min for the second.

Going from `COc1ccccc1OCC(O)COC(N)=O` (configuration not stated) to `N=C(N)c1ccccc1`, the LC retention time falls from 5.21 min to 2.63 min (2-fold).

First: CNCCCC(C#N)(c1ccc(OC)c(OC)c1)C(C)C (configuration not stated)
Second: CCCCCCCC(C)(C)c1ccc(C2CCCC(O)C2)c(O)c1 (configuration not stated)
The LC retention time of the first is 2.2-fold lower: 6.14 min for the first, 13.5 min for the second.

`CCN(C(C)=O)c1cccc(-c2ccnc3c(C#N)cnn23)c1` and `COc1ccc2c(c1)[nH]c1c(C)nccc12` are within 1.5-fold of each other in LC retention time: 6.61 min for the first, 5.34 min for the second.

First: CCCCc1c(C)nc(NCC)nc1OS(=O)(=O)N(C)C
Second: COc1cc(OC)nc(NC(=O)NS(=O)(=O)c2ncccc2C(=O)N(C)C)n1
The LC retention time of the first is 1.6-fold higher: 10.5 min for the first, 6.62 min for the second.

`COP(N)(=O)SC` (configuration not stated) and `CCS(=O)CCSP(=O)(OC)OC` (configuration not stated) are within 1.5-fold of each other in LC retention time: 2.76 min for the first, 3.98 min for the second.

Compared with `CCCC(C)(COC(N)=O)COC(=O)NC(C)C` (configuration not stated), `CN(C)C(=O)Oc1cc(OC(=O)N(C)C)cc(C(O)CNC(C)(C)C)c1` (configuration not stated) is 1.5-fold lower in LC retention time: 7.99 min for the first, 5.16 min for the second.

First: OC(c1ccccc1)(c1ccccc1)C1CCCCN1 (configuration not stated)
Second: CCOP(=O)(Sc1ccccc1)Sc1ccccc1
The LC retention time of the first is 1.9-fold lower: 5.78 min for the first, 10.8 min for the second.

`COC(=O)NC(=S)Nc1ccccc1NC(=S)NC(=O)OC` and `COC(=O)C(C)N(C(=O)c1ccco1)c1c(C)cccc1C` (configuration not stated) are within 1.5-fold of each other in LC retention time: 6.93 min for the first, 8.99 min for the second.

`N#CCCCCn1cc(C(=O)c2cccc3ccccc23)c2ccccc21` and `CN(C)C(CCOc1cccc2ccccc12)c1ccccc1` (configuration not stated) are within 1.5-fold of each other in LC retention time: 9.69 min for the first, 8.34 min for the second.

`Nc1nc2ccccc2[nH]1` and `c1ccc2c(c1)CCCC2C1=NCCN1` (configuration not stated) are within 1.5-fold of each other in LC retention time: 3.74 min for the first, 4.47 min for the second.

`CN1C(=O)C(O)CC1c1cccnc1` (configuration not stated) and `c1cncc(C2CCCN2)c1` (configuration not stated) are within 1.5-fold of each other in LC retention time: 3.13 min for the first, 3.14 min for the second.

`OCC(O)CN1CCN(c2ccccc2)CC1` (configuration not stated) and `CN1CCN(CC(=O)N2c3ccccc3C(=O)Nc3cccnc32)CC1` are within 1.5-fold of each other in LC retention time: 3.79 min for the first, 4.11 min for the second.

`CSc1nc(NC(C)C)nc(NC(C)C)n1` and `CC(C)OC(=O)c1cc(C(=O)OC(C)C)cc([N+](=O)[O-])c1` are within 1.5-fold of each other in LC retention time: 10.1 min for the first, 12 min for the second.

Going from `CC12CC3CC(C)(C1)CC(N)(C3)C2` to `CNCC1CCCCC1(O)c1cccc(O)c1` (configuration not stated), the LC retention time falls from 6.91 min to 4.28 min (1.6-fold).

`C1=Cc2ccccc2Nc2ccccc21` and `CCCCOc1ccc(CC(=O)NO)cc1` are within 1.5-fold of each other in LC retention time: 10.1 min for the first, 7.83 min for the second.

Going from `CCOP(=O)(SC(C)CC)SC(C)CC` (configuration not stated) to `CCCc1nn(C)c2c(=O)[nH]c(-c3cc(C(=O)N4CCN(CC)CC4)ccc3OCC)nc12`, the LC retention time falls from 11.5 min to 6.78 min (1.7-fold).

`CCn1cc(C(=O)O)c(=O)c2cc3c(cc21)OCO3` and `COc1ccc2c3c([nH]c2c1)C(C)=NCC3` are within 1.5-fold of each other in LC retention time: 6.03 min for the first, 5.06 min for the second.

`CCC(=O)C1C(=O)CC(C(=O)O)CC1=O` (configuration not stated) gave an LC retention time of 5.63 min.
